The values that follow come from patent publication US9289461B2, “Reducing the risk of autoimmune disease” (Mead Johnson Nutrition (Asia Pacific) Pte. Ltd., priority 2013, dated 2016).

The assay relates to STC-1 (intestinal endocrine cell line). As to the kind of experiment: CCK release from STC-1 intestinal endocrine cell line. The conditions noted are these: compared with a partial hydrolysate (Gentlease) or free amino acids. Format: cell-based.
Regarding “ALPMHIR [specific peptide from a casein hydrolysate of the present disclosure]”, the “CCK release from STC-1 cells” value is “may stimulate CCK release”. Regarding “DISLLDAQSAPLR [specific peptide from a casein hydrolysate of the present disclosure]”, the “CCK release from STC-1 cells” value was “may stimulate CCK release”. “GPVRGPFP [specific peptide from a casein hydrolysate of the present disclosure]”: the “CCK release from STC-1 cells” value is “may stimulate CCK release”.
